Values of other authors, collected in patent US20190125725A1, “PHARMACEUTICAL COMPOSITIONS COMPRISING BRIVARACETAM” (Jubilant Generics Limited, priority 2016, published 2019).

Settings: High solubility and permeability

For CCC[C@@H]1CC(=O)N([C@@H](CC)C(N)=O)C1 [Brivaracetam, (2S)-2-[(4R)-2-oxo-4-propyltetrahydro-1H-pyrrol-1-yl] butanamide], the “Biopharmaceutics Classification System class” value is given as “class I”.
